This note sets out measurements from patent publication US6916471B2, “Red blood cells loaded with S-nitrosothiol and uses therefor” (Duke University, priority 1995, dated 2005).

Assay [1] has as its system rabbit thoracic aorta rings. Put plainly: Rabbit aortic ring bioassay: native and blocked Hb preparations, vessel tone and ACh (EDRF) relaxation. The following applies: 1 μM. The source says: Hb-mediated inhibition of endothelium-dependent relaxations is commonly used as a marker of NO responses. Inasmuch as reactions with either metal or thiol centers of Hb should lead to attenuated NO/EDRF (endothelium-derived relaxing factor) responses, we attempted to elucidate the molecular basis of inhibition. Hb preparations in which β93 thiol groups had been blocked with N-ethylmaleimide (NEM) or the hemes blocked by cyanmet (FeIIICN)-derivitization were studied in an aortic ring bioassay, and their activities compared with that of native Hb. Both cyanmet-Hb and NEM-Hb caused increases in vessel tone and attenuated acetylcholine (EDRF)-mediated relaxations (FIG. 3B). […] To verify formation of an S-nitrosothiol in Hb, we established a bioassay in which 2 cm segments of thoracic aorta were interposed in Tygon tubing, through which 3 cc of Krebs solution containing Hb (4 μM) and ACh (2 μM) were circulated by roller pump (1.5 cc/min×5 min).
The effects of native Hb on EDRF responses were compared with Hb preparations in which the thiol or heme centers had been blocked by alkylation or cyanmet derivitization, respectively. All preparations of Hb elicited contractions; however, those of native Hb (in which both SH and metal centers are free for interaction) were most pronounced. […] Relaxations were inhibited to lesser degrees by cyanmet Hb (CN-Hb)(in which hemes were blocked from reaction) and NEM-Hb (in which thiol groups were alkylated by N-ethylmaleimide). […] Direct measurement of SNO-Hb, formed from EDRF under similar conditions, is described in Example 8.
Descending rabbit thoracic aorta were cut into 3 mm rings and mounted on stirrups attached to force transducers (model FT03, Grass Instruments, Quincy, Mass.) for measurement of isometric tone. The details of this bioassay system have been previously described (Stamler, J. S., et al., Proc. Natl. Acad. Sci. USA 89:444-448 (1992)). Cyanmet Hb was prepared from human HbA according to published protocols (Kilbourn, R. G. et al. Biochem. Biophy. Res. Comm. 199:155-162, (1994)). Alkylation of HbA with N-ethylmaleimide was followed by desalting across G-25 Sephadex to remove excess NEM. Removal of unmodified Hbcysβ93 was achieved by passage through Hg-containing affinity columns. The alkylation of free SH groups was verified using 5,5′-dithio-bis[2-nitrobenzoic acid].

In assay [2] the test system is rat red blood cells. Put plainly: S-nitrosylation of intraerythrocytic Hb (loading of red blood cells). The class given is cell-based. The following applies: for formation of intraerythrocytic SNO-Hb: oxygenated rat red blood cells. Here is the method: Given that Hb is largely contained within red blood cells, potential mechanisms by which S-nitrosylation of intracellular protein might occur were explored. […] Rapid oxidation of Hb was not observed under these conditions. […] Thus, erythrocyte access of RSNOs is thiol group specific.
Incubation of rat erythrocytes with S-nitrosocysteine (equimolar to heme (5 mM); phosphate buffer pH 7.4, 25° C.) leads to rapid formation of intracellular SNO-Hb(FeII)O2. […] By 60 min, 3 of the 4 available SH groups of Hb are S-nitrosylated (note that rat Hb contains 4 reactive SH groups). […] Spectrum A is that of SNO-Hb isolated from erythrocytes following G-25 chromatography. Treatment of A with dithionite results in reduction of the S—NO moiety, liberating free NO which is autocaptured by deoxy Hb, forming Hb(FeII)NO (note that dithionite simultaneously deoxygenates Hb) (spectrum C). […] The spectrum of Hb(FeII)NO containing 4 NO's per tetramer is shown for comparison (inset, spectrum B).
At shown intervals, red blood cells were pelleted rapidly by centrifugation, washed three times, lysed in deionized water at 4° C., and the cytosolic fraction subjected to rapid desalting across G-25 columns. Intracellular SNO-Hb was measured by the method of Saville (Gaston, B., et al., (1992); Stamler, J. S., et al., Proc. Natl. Acad. Sci. USA, 89:444-448 (1992)), and confirmed spectroscopically (inset of FIG. 3A) as described above.

Assay [3] has as its system Sprague-Dawley rat. Briefly: Mean arterial pressure after femoral vein bolus of cell-free Hb and SNO-Hbs. The class given is in vivo. The source says:
Systemic administration of cell-free Hb results in hypertensive responses which have been attributed to NO scavenging by the heme (Vogel, W. M., et al., Am. J. Physiol. 251:H413-H420 (1986); Olsen, S. B., et al., Circulation 93:329-332 (1996)). To determine if SNO-Hb is free of this adverse affect, and to explore if in vitro mechanisms of NO release extend to the in vivo circumstance, we compared responses to Hb and SNO-Hb infused as a bolus into the femoral vein of anesthetized rats. […] Thus, the profiles of these compounds in vivo closely resemble those seen in vitro (FIG. 4A). […] These changes in mean blood pressure of ˜10% are on the order of those that differentiate normotension from hypertension in man, and in the therapeutic range of some antihypertensive regimens. […] The bioactivity of SNO-Hb in blood, where S—NO/heme stoichiometries approach 1:50,000, is a dramatic illustration of the resistence of this NO-related activity to Hb(Fe) inactivation.
Administration of 2-200 nmol/kg Hb(FeII)O2 (as a bolus) into the femoral vein of a Sprague-Dawley rat is shown to increase mean arterial pressure in a dose-dependent manner. At 200 nmol/kg, mean arterial pressure increased by 25 mm Hg (20±3 mm Hg; n=4; P<0.05). Elevations in blood pressure reversed within 10-15 min. SNO-Hb(FeII)O2 infusions (over the same dose range) are shown to ameliorate Hb(FeII)O2-induced hypertension without causing overt changes in blood pressure. […] A fall in blood pressure was also seen with injection of erythrocytes containing SNO-Hb.
Rats were anesthetized by intraperitoneal injection of pentobarbital and the femoral arteries and veins accessed by local cut down. The artery was then cannulated and the blood pressure monitored continuously using a Viggo Spectramed pressure transducer attached to a Gould recorder. An IBM PC (DATA Q Codas) was used for data acquisition.

The test system of assay [4] is vascular ring. Briefly: Vessel ring bioassay of SNO-Hb preparations, with or without glutathione. The conditions noted are these: glutathione 100 μM in bioassay chambers. The source says: Arterial red blood cells contain two physiologically important forms of hemoglobin: Hb(FeII)O2 and Hb(FeIII) (Antonini et al. (1971)). […] Such findings raise the possibility of functional consequences, perhaps influenced by the redox state of heme and its occupation by ligand.
Details of the vessel ring bioassay have been published (Stamler, J. S., et al., Proc. Natl. Acad. Sci. USA 89:444-448 (1992)). SNO-Hb(FeII)O2 preparations were synthesized with 10-fold excess S-nitrosocysteine (CYSNO) over Hb(FeII)O2 protein (2% borate, 0.5 mM EDTA, ˜15 min incubation), after which desalting was performed across Sephadex G-25 columns. CYSNO was synthesized in 0.5 N HCl, 0.5 mM EDTA and then neutralized (1:1) in 1 M phosphate buffer containing 0.5 mM EDTA. […] The latter was synthesized by treatment of Hb(FeII)O2 with excess ferricyanide, followed by desalting across G-25 columns. SNO-Hb concentrations were verified spectroscopically and the S-nitrosothiol content was determined by the method of Saville (Stamler, J. S., et al., Proc. Nat. Acad. Sci. USA 89:444-448 (1992)). The S-NO/tetramer stoichiometry for both SNO-Hb preparations was ˜2. Oxidation of the heme was undetectable by uv-spectrophotometric methods.

The test system of assay [5] is rabbit thoracic aorta rings. Put plainly: Oxygen-dependent rabbit aortic ring bioassay of Hb, SNO-Hb, GSNO and SNO-RBCs.
The subject of assay [6] is Sprague-Dawley rats. Put plainly: Local cerebral blood flow by H2-sensitive microelectrodes. The class given is in vivo, rat. The following applies: 1 μmol/kg infused over 3 minutes. Here is the method: Adult male Sprague-Dawley rats (290-350 g) were anesthetized with sodium pentobarbital (50 mg/kg IP), intubated and ventilated with a small animal respirator (Edco Scientific Inc., Chapel Hill, N.C.) at a rate and tidal volume to maintain normal values of PaCO2 (35-45 mm Hg; PaCO2=systemic arterial blood carbon dioxide tension). The femoral vein and artery were cannulated for infusion of drugs and for continuous monitoring of systemic blood pressure, respectively. Aliquots of arterial blood (200 μl) were drawn periodically to measure blood gas tensions and pH (Instrumentation Laboratory Co., model 1304 blood gas/pH analyzer). The blood was replaced intravenously with three volumes of normal saline. The inspired O2 concentration was varied using premixed gases balanced with nitrogen. The tissue PO2 was measured continuously with polarographic platinum microelectrodes (50 μm O.D. coated with hydrophobic gas permeable Nafion) implanted stereotaxically in both the right and left hippocampus (AP−3.4 mm, ML+2.2 mm), caudate putamen nucleus and substantia nigra (see coordinates below) (Young, W., Stroke, 11:552-564 (1980); Heiss, W. D. and Traupett, H., Stroke, 12:161-167 (1981); Dewhirst, M. W. et al., Cancer Res., 54:3333-3336 (1994); Kerger, H. et al., Am. J. Physiol., 268:H802-H810 (1995)). The PO2 electrodes were polarized to −0.65V against a distant Ag/AgCl reference located on the tail and the current flow was measured using a low-impedance nA-meter. Regional arterial PO2 was adjusted by changing the inspired O2 concentration and atmospheric pressure.
Polarographic hydrogen (H2)-sensitive microelectrodes were implanted stereotaxically in the substantia nigra (AP −5.3 mm, ML −2.4 mm to the bregma, depth 3.2 mm), caudate putamen nucleus (CPN) (AP +0.8 mm, ML −2.5 mm, depth 5.2 mm) and parietal cortex, for measurement of regional blood flow (Young, W., Stroke, 11:552-564 (1980); Heiss, W. D. and Traupett, H., Stroke, 12:161-167 (1981)). The microelectrodes were made from platinum wire and insulated with epoxy, with the exception of the tip (1 mm) which was coated with Nafion. For placement, the electrodes were mounted on a micromanipulator and the rat's head was immobilized in a Kopf stereotaxic frame. H2-sensitive electrodes were polarized to +400 mV against a distant reference electrode on the tail, and the polarographic current was measured using a low-impedance nA meter during and after the inhalation of hydrogen gas (2.5%) for 1 min. Both the hydrogen clearance curves and voltage for oxygen measurements were made using PC WINDAQ (software, DI-200 AC, Dataq Instruments, Inc., Akron, Ohio). Cerebral blood flow was calculated using the initial slope method (Young, W., Stroke, 11:552-564 (1980); Heiss, W. D. and Traupett, H., Stroke, 12:161-167 (1981)). Regional blood flow responses were monitored for 30 min. prior to and 30 min. following drug administration; hemoglobins were given at time 0.
The cerebrovascular effects of SNO-Hb were measured in adult male Sprague-Dawley rats using O2 and H2 (blood flow)-sensitive microelectrodes that were placed stereotaxically in several regions of the brain as for Example 11.
Comparative effects of SNO-Hb (●) and Hb (▪) (1 μmol/kg infused over 3 minutes) on local blood flow in substantia nigra (SN), caudate putamen nucleus, and parietal cortex are shown for three different conditions. […] Baseline blood flow was decreased by ˜10% under 100% O2+3 ATA as compared to 100% O2. n=7 for all data points. Values of tissue/microvascular PO2 ranged from 19-37 mm Hg in 21% O2; from 68-138 mm Hg in 100% O2; and from 365-538 mm Hg in 100%+3 ATA (Duke University Medical Center Hyperbaric Chambers).

Values joined by “and” are separate entries in the source; they are usually repeats but may differ in a detail not shown here. Identical values can stand only once.

Turning to `CC(=O)OCC[N+](C)(C)C` [ACh, acetylcholine], the “% ACh RELAXATION” value in assay [1] is listed as 98.3 ± 0.6 (n = 10) %.

With `[N]=O` [NO, nitric oxide, reference compound], in assay [2], the “formation of intraerythrocytic SNO-Hb” value was “primarily in metHb formation”.

In the case of `N[C@@H](CSN=O)C(=O)O` [S-nitrosocysteine], in assay [2] (of the 4 available SH groups of rat Hb, by 60 min, equimolar to heme (5 mM), pH 7.4, 25° C.), the “SH groups of Hb S-nitrosylated” value was found to be 3. Also, in assay [2], the “formation of intraerythrocytic SNO-Hb” value is “very rapid formation of intracellular SNO-Hb(FeII)O2”.

For the molecule `N[C@@H](CSN=O)C(=O)NCC(=O)O` [S-nitrosocysteinylglycine], the “formation of intraerythrocytic SNO-Hb” value in assay [2] is given as “Intraerythrocytic SNO-Hb also formed”.

On to `N[C@@H](CCSN=O)C(=O)O` [S-nitrosohomocysteine], for which, in assay [2], the “formation of intraerythrocytic SNO-Hb” value is “Intraerythrocytic SNO-Hb also formed”.

As to “CN-Hb: cyanmet Hb, in which hemes were blocked from reaction”, in assay [1], the “% ACh RELAXATION” value is on record as 80.7 ± 1.0 † (n = 4) % and the “% INCREASE IN TENSION” value is 12.9 ± 3.0 (n = 6) %.

With “Hb(FeII)O2: oxyhemoglobin, cell-free [reference compound]”, the “increase in mean arterial pressure” value in assay [3] (200 nmol/kg bolus, femoral vein, anesthetized rat) was 20±3 mm Hg and 25 mm Hg. The “time for elevations in blood pressure to reverse” value in assay [3] (2-200 nmol/kg bolus) is 10 to 15 min. The “effect of added glutathione on the dose-response” value in assay [4] was “did not significantly influence the response”.

As for “Hb: native cell-free human hemoglobin purified from red cells [reference compound]”, the “effect on tone of rings contracted with phenylephrine under hypoxia” value in assay [5] (1 μM, 6-7 torr) was “progressive increases in vessel tone”. In addition, the “local cerebral blood flow” value in assay [6] (21% O2) is “decreased local blood flow”; in assay [6] (100% O2), “decrease in flow was preserved”; in assay [6] (100% O2+3 ATA), “tended to decrease cerebral flow to similar extents”. Also, the “% ACh RELAXATION” value in assay [1] is reported as 31.9 ± 6.9 (n = 7) %. Moreover, in assay [1], the “% INCREASE IN TENSION” value is 40.8 ± 2.3 (n = 7) %.

“NEM-Hb: Hb in which thiol groups were alkylated by N-ethylmaleimide”: in assay [1], the “% ACh RELAXATION” value was 60.5 ± 3.9 (n = 7) % and the “% INCREASE IN TENSION” value is on record as 29.4 ± 1.3 (n = 7) %.

On to “deoxyHb: deoxygenated hemoglobin [reference compound]”, for which, in assay [5] (<1% O2 (˜6 torr)), the “effect on vessel tone in T-structure” value is reported as “powerful contractile agent”.
